Source: US20230413819A1, “METHODS FOR CONTROLLING FLEA AND TICK INFESTATIONS IN A MAMMAL” (In the Bowl Animal Health, Inc., priority 2021, published 2023)
Read-outs that look alike come from different tables or passages of the source.

Tests used:
[1] = Average plasma concentration of mivorilaner, various daily oral doses (Examples 5 and 11); format: in vivo, dogs; conditions: dog, Group 5, 1.0 mg/kg/day oral, fed
[2] = Average plasma concentration of mivorilaner, medicated daily feed (Example 9); format: in vivo, dogs
Protocol: Each dog in a treatment group (test groups 2-4) is to receive a medicated daily feed from study days 0-49. The medicated daily feed is to be offered to the dogs for 1 hour on each of days 0-49 according to test groups listed in TABLE 11.

Ctenocephalides felis = test: Efficacy of isoxazoline (mivorilaner) per os to dogs against Ctenocephalides felis (Example 10); format: in vivo; conditions: 0.75 mg/kg/day oral
Excerpt: Methods: A pool of 14 dogs are to be preliminarily infested with ˜100 unfed adult C. felis in order to identify dogs that can suitably sustain a reliable infestation rate, defined as approximately 50% fleas being live at the end of a 48-hour period. The 12 dogs with the highest live flea counts are to be selected for inclusion in the study. The dogs are to be divided into a control group and a treatment group.
The dogs are to be housed individually during the study period and are to be fed a commercial dry dog food ration with ad libitum access to water.
Each dog in the treatment group is to receive by mouth a liquid formulation of isoxazoline. The dosage of 0.75 mg/kg is to be administered to the dogs on each of days 0-29.
Dogs in the control group are not to receive isoxazoline or any other flea control treatment. Each dog in the treatment group is to be offered its daily ration (dry food) and the individual doses of liquid formulation are to be administered after the individual dog has eaten at least 25% of its total daily ration. After receiving the dose of isoxazoline, the dogs are to be allowed to continue eating. This mimics incorporating the isoxazoline in feed. […]
Results: referring now to FIG. 16, the arithmetic mean efficacy in reduction of live adult flea counts is shown. The Percent Efficacy is calculated according to the formula: […]

[3] = Plasma concentration of mivorilaner, 0.75 mg/kg daily oral (Examples 4 and 10); format: in vivo, dogs; conditions: dog, 0.75 mg/kg/day

O=C(CNC(=O)c1sc(C2=NO[C@@](c3cc(Cl)c(F)c(Cl)c3)(C(F)(F)F)C2)c2c1CCC2)NCC(F)F [mivorilaner, 3-[(5S)-5-(3,5-dichloro-4-fluorophenyl)-5-(trifluoromethyl)-4,5-dihydroisoxazol-3-yl]-N-[2-[(2,2-difluoroethyl)amino]-2-oxoethyl]-5,6-dihydro-4H-cyclopenta[c]thiophene-1-carboxamide]
concentration at 720 h ([1]; 720 h after initial dose): 3760 ng/mL
concentration at 888 h ([1]; 888 h after initial dose): 3860 ng/mL
concentration at 1056 h ([1]; 1056 h after initial dose): 4260 ng/mL
concentration at 1224 h ([1]; 1224 h after initial dose): 4840 ng/mL
concentration at 1440 h ([1]; 1440 h after initial dose): 4140 ng/mL
average plasma concentration of isoxazoline (mivorilaner) ([2]; Group 2, 106 mg/kg feed (anticipated 1 mg/kg daily), 1 hr): 49.98
average plasma concentration of isoxazoline (mivorilaner) ([2]; Group 2, 106 mg/kg feed (anticipated 1 mg/kg daily), 3 hr): 292.00
average plasma concentration of isoxazoline (mivorilaner) ([2]; Group 2, 106 mg/kg feed (anticipated 1 mg/kg daily), 6 hr): 539.00
average plasma concentration of isoxazoline (mivorilaner) ([2]; Group 2, 106 mg/kg feed (anticipated 1 mg/kg daily), 10 hr): 505.40
average plasma concentration of isoxazoline (mivorilaner) ([2]; Group 2, 106 mg/kg feed (anticipated 1 mg/kg daily), 24 hr): 458.60
average plasma concentration of isoxazoline (mivorilaner) ([2]; Group 2, 106 mg/kg feed (anticipated 1 mg/kg daily), 48 hr): 771.83
average plasma concentration of isoxazoline (mivorilaner) ([2]; Group 2, 106 mg/kg feed (anticipated 1 mg/kg daily), 96 hr): 1570.50
average plasma concentration of isoxazoline (mivorilaner) ([2]; Group 2, 106 mg/kg feed (anticipated 1 mg/kg daily), 168 hr): 2156.67
average plasma concentration of isoxazoline (mivorilaner) ([2]; Group 2, 106 mg/kg feed (anticipated 1 mg/kg daily), 240 hr): 3003.33
average plasma concentration of isoxazoline (mivorilaner) ([2]; Group 2, 106 mg/kg feed (anticipated 1 mg/kg daily), 336 hr): 3290.00
average plasma concentration of isoxazoline (mivorilaner) ([2]; Group 3, 106 mg/kg feed (anticipated 1 mg/kg daily), 1 hr): 40.41
average plasma concentration of isoxazoline (mivorilaner) ([2]; Group 3, 106 mg/kg feed (anticipated 1 mg/kg daily), 3 hr): 264.83
average plasma concentration of isoxazoline (mivorilaner) ([2]; Group 3, 106 mg/kg feed (anticipated 1 mg/kg daily), 6 hr): 467.50
average plasma concentration of isoxazoline (mivorilaner) ([2]; Group 3, 106 mg/kg feed (anticipated 1 mg/kg daily), 10 hr): 419.17
average plasma concentration of isoxazoline (mivorilaner) ([2]; Group 3, 106 mg/kg feed (anticipated 1 mg/kg daily), 24 hr): 435.17
average plasma concentration of isoxazoline (mivorilaner) ([2]; Group 3, 106 mg/kg feed (anticipated 1 mg/kg daily), 48 hr): 781.83
average plasma concentration of isoxazoline (mivorilaner) ([2]; Group 3, 106 mg/kg feed (anticipated 1 mg/kg daily), 96 hr): 1596.67
average plasma concentration of isoxazoline (mivorilaner) ([2]; Group 3, 106 mg/kg feed (anticipated 1 mg/kg daily), 168 hr): 2406.67
average plasma concentration of isoxazoline (mivorilaner) ([2]; Group 3, 106 mg/kg feed (anticipated 1 mg/kg daily), 240 hr): 3026.67
average plasma concentration of isoxazoline (mivorilaner) ([2]; Group 3, 106 mg/kg feed (anticipated 1 mg/kg daily), 336 hr): 3516.67
average plasma concentration of isoxazoline (mivorilaner) ([2]; Group 4, 318 mg/kg feed (anticipated 3 mg/kg daily), 1 hr): 143.75
average plasma concentration of isoxazoline (mivorilaner) ([2]; Group 4, 318 mg/kg feed (anticipated 3 mg/kg daily), 3 hr): 846.50
average plasma concentration of isoxazoline (mivorilaner) ([2]; Group 4, 318 mg/kg feed (anticipated 3 mg/kg daily), 6 hr): 1265.67
average plasma concentration of isoxazoline (mivorilaner) ([2]; Group 4, 318 mg/kg feed (anticipated 3 mg/kg daily), 10 hr): 1198.17
average plasma concentration of isoxazoline (mivorilaner) ([2]; Group 4, 318 mg/kg feed (anticipated 3 mg/kg daily), 24 hr): 1021.17
average plasma concentration of isoxazoline (mivorilaner) ([2]; Group 4, 318 mg/kg feed (anticipated 3 mg/kg daily), 48 hr): 2011.67
average plasma concentration of isoxazoline (mivorilaner) ([2]; Group 4, 318 mg/kg feed (anticipated 3 mg/kg daily), 96 hr): 3928.33
average plasma concentration of isoxazoline (mivorilaner) ([2]; Group 4, 318 mg/kg feed (anticipated 3 mg/kg daily), 168 hr): 6461.67
average plasma concentration of isoxazoline (mivorilaner) ([2]; Group 4, 318 mg/kg feed (anticipated 3 mg/kg daily), 240 hr): 8696.67
average plasma concentration of isoxazoline (mivorilaner) ([2]; Group 4, 318 mg/kg feed (anticipated 3 mg/kg daily), 336 hr): 11600.00
day after initial administration by which the treatment is effective (reduction of live adult flea counts) (Ctenocephalides felis): ≤ 4 days
concentration at 3 day ([3]; 0.75 mg/kg/day oral days 0-29, Day 3, read-out: Mivorilaner Concentration, Average of 6 canines): 674 ng/mL
concentration at 3 day ([3]; 0.75 mg/kg/day oral days 0-29, Day 3, read-out: Mivorilaner Concentration, individual canines): 648 ng/mL
concentration at 7 day ([3]; 0.75 mg/kg/day oral days 0-29, Day 7, read-out: Mivorilaner Concentration, Average of 6 canines): 1450 ng/mL
concentration at 7 day ([3]; 0.75 mg/kg/day oral days 0-29, Day 7, read-out: Mivorilaner Concentration, individual canines): 1620 ng/mL
concentration at 14 day ([3]; 0.75 mg/kg/day oral days 0-29, Day 14, read-out: Mivorilaner Concentration, Average of 6 canines): 2100 ng/mL
concentration at 14 day ([3]; 0.75 mg/kg/day oral days 0-29, Day 14, read-out: Mivorilaner Concentration, individual canines): 2530 ng/mL
concentration at 21 day ([3]; 0.75 mg/kg/day oral days 0-29, Day 21, read-out: Mivorilaner Concentration, Average of 6 canines): 2720 ng/mL
concentration at 21 day ([3]; 0.75 mg/kg/day oral days 0-29, Day 21, read-out: Mivorilaner Concentration, individual canines): 2820 ng/mL
concentration at 30 day ([3]; 0.75 mg/kg/day oral days 0-29, Day 30, read-out: Mivorilaner Concentration, Average of 6 canines): 2630 ng/mL
concentration at 37 day ([3]; 0.75 mg/kg/day oral days 0-29, Day 37, read-out: Mivorilaner Concentration, Average of 6 canines): 2020 ng/mL
concentration at 37 day ([3]; 0.75 mg/kg/day oral days 0-29, Day 37, read-out: Mivorilaner Concentration, individual canines): 2410 ng/mL
